As a reminder, the viability is a read-out of living cells in per cent, often relative to untreated cells. As a reminder, the EC50 is the concentration at which the effect is half-maximal.

We go through nine molecules from patent US10577362B2, “Substituted 2, 4-diamino-quinoline derivatives for use in the treatment of proliferative diseases” (GENOSCIENCE PHARMA, priority 2016, dated 2020).

Test [1] concerns A375 (malignant melanoma) cell line. As to the kind of experiment: CellTiter-Glo luminescent cell viability assay, A375. The following applies: Homo sapiens, A-375; for viability at 4 µM: A375, compound at 4 μM; for viability at 4 µM / viability at 10 µM: 72 h; for viability at 10 µM: A375, compound at 10 μM. It counts as cell-based, human. The method in brief: (§1)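 Adherent lines plated overnight, MOLM-14 (suspension) 1 h before dosing, in medium with 10% FBS at 37 °C, 5% CO2. Compounds added at varying concentrations for 72 h; CellTiter-Glo luminescence read, EC50 as dose reducing signal to 50% of diluent-treated cells, at least duplicate points.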

The test system of test [2] is HCT-116 (colorectal carcinoma) cell line. As to the kind of experiment: CellTiter-Glo luminescent cell viability assay, HCT-116. The test is classed as cell-based, human. To be noted: Homo sapiens; for viability at 4 µM: HCT-116, compound at 4 μM; for viability at 4 µM / viability at 10 µM: 72 h; for viability at 10 µM: HCT-116, compound at 10 μM. The method in brief: as §1

The subject of test [3] is PANC-1 (prancreatic carcinoma) cell line. As to the kind of experiment: CellTiter-Glo luminescent cell viability assay, PANC-1. The test is classed as cell-based. The following applies: Homo sapiens; for viability at 4 µM: PANC-1, 4 μM; for viability at 4 µM / viability at 10 µM: 72 h, % of signal of diluent-treated cultures; for viability at 10 µM: PANC-1, 10 μM. The method in brief: as §1
(ATP-based viability assays read luminescence as a measure of living cells.)

The subject of test [4] is Huh7 (hepatocellular carcinoma) cell line. As to the kind of experiment: CellTiter-Glo luminescent cell viability assay, Huh7. The test is classed as cell-based, human. The following applies: Homo sapiens, Huh-7; for viability at 4 µM: Huh7, compound at 4 μM; for viability at 4 µM / viability at 10 µM: 72 h; for viability at 10 µM: Huh7, compound at 10 μM. The method in brief:
as §1

Test [5] relates to 786-O (renal adenocarcinoma) cell line. As to the kind of experiment: CellTiter-Glo luminescent cell viability assay, 786-O. It counts as cell-based, human. The following applies: Homo sapiens, 786-0; for viability at 4 µM / viability at 10 µM: 786-O, 72 h; for viability at 4 µM: compound at 4 μM; for viability at 10 µM: compound at 10 μM. A digest of the protocol:
as §1

Test [6] concerns HepG2 (hepatocellular carcinoma) cell line. As to the kind of experiment: CellTiter-Glo luminescent cell viability assay, HepG2. The test is classed as cell-based, human. The following applies: Homo sapiens; for viability at 4 µM / viability at 10 µM: HepG2, HepG, 72 h; for viability at 4 µM: compound at 4 μM; for viability at 10 µM: compound at 10 μM. The method in brief:
as §1

In test [7] the test system is MOLM-14 (acute myeloid leukemia) cell line. As to the kind of experiment: CellTiter-Glo luminescent cell viability assay, MOLM-14. The following applies: Homo sapiens; for viability at 4 µM: MOLM-14, compound at 4 μM; for viability at 4 µM / viability at 10 µM: 72 h; for viability at 10 µM: MOLM-14, compound at 10 μM. It counts as cell-based, human. The method in brief: as §1

In the case of `CC(C)(C)NC1CCN(c2c(C#N)c(Nc3cccc(C(F)(F)F)c3)nc3ccccc23)CC1` [Compound 3256CN, 2-(3-trifluoromethylphenylamino)-3-cyano-4-[4-(tert-butylamino)piperidin-1-yl]quinoline], the viability at 4 µM was 55.2% in test [1]; 3.6% in test [2]; 104% in test [3]; 78.3% in test [4]; 61.8% in test [5]; 82.9% in test [6]. The viability at 4 µM in test [7] turned out to be 91.1%. The viability at 10 µM in test [1] is 2.4%; in test [2], 0.2%; in test [3], 81.8%; in test [4], 29.3%; in test [5] it was 13.7%; in test [6], 56.6%. Further, the viability at 10 µM in test [7] worked out at 85.6%.

In the case of `CC(C)(C)NC1CCN(c2c(C#N)c(Nc3cnccn3)nc3ccccc23)CC1` [Compound 3284CN, 2-(pyrazin-2-ylamino)-3-cyano-4-[4-(tertbutylamino)piperidin-1-yl]quinoline], the viability at 4 µM turned out to be 88.3% in test [1]; 83.4% in test [2]; 96.3% in test [3]; 95.3% in test [4]; 89.8% in test [5]; 90% in test [6]. The viability at 4 µM in test [7] was determined as 102%. Moreover, the viability at 10 µM in test [1] came out at 64.9%; in test [2], 27.4%; in test [3], 69.4%; in test [4], 79.2%; in test [5] it was 61.9%; in test [6], 68.4%. Moreover, the viability at 10 µM in test [7] was found to be 78.3%.

Turning to `Cc1nc(Nc2nc3ccccc3c(N3CCC(NC(C)(C)C)CC3)c2C#N)n(C)n1` [Compound 3274CN, 2-[(1,3-dimethyl-1H-1,2,4-triazol-5-yl)amino]-3-cyano-4-[4-(tert-butylamino)piperidin-1-yl]quinoline], the viability at 4 µM in test [1] was 84.7%; in test [2], 73.3%; in test [3], 96.7%; in test [4], 96.2%; in test [5] it was 106%; in test [6] it was 63.4%. For the same molecule, in test [7], the viability at 4 µM was found to be 91.3%. In addition, the viability at 10 µM worked out at 69.2% in test [1]; 49.5% in test [2]; 89.9% in test [3]; 75% in test [4]; 83.4% in test [5]; 55.2% in test [6]. The viability at 10 µM in test [7] was 78.2%.

For `Cc1nnc(Nc2nc3ccccc3c(N3CCC(NC(C)(C)C)CC3)c2C#N)o1` [Compound 3272CN, 2-[(5-methyl-1,3,4-oxadiazol-2-yl)amino]-3-cyano-4-[4-(tert-butylamino)piperidin-1-yl]quinoline], the viability at 4 µM was found to be 62.3% in test [1]; 13.9% in test [2]; 84.7% in test [3]; 92.6% in test [4]; 79% in test [5]; 97.7% in test [6]. The viability at 4 µM in test [7] came to 82.3%. Besides, the viability at 10 µM came to 21.2% in test [1]; 5% in test [2]; 65.3% in test [3]; 67.2% in test [4]; 48.9% in test [5]; 61.2% in test [6]. In addition, the viability at 10 µM in test [7] is 20.7%.

With `CNC1CCN(c2c(C#N)c(NCc3ccc(Cl)cc3)nc3ccccc23)CC1` [Compound 3172CN, 2-(4-chlorobenzylamino)-3-cyano-4-[4-(methylamino)piperidin-1-yl]quinoline], the viability at 4 µM is 0.4% in test [1]; 0.2% in test [2]; 56.4% in test [3]; 30.7% in test [4]; 0.5% in test [5]; 0.5% in test [6]. The viability at 4 µM in test [7] came to 0.5%. The viability at 10 µM in test [1] stood at 0.3%; in test [2], 0.1%; in test [3], 0.5%; in test [4], 0.4%; in test [5] it was 0.3%; in test [6], 0.4%. Besides, the viability at 10 µM in test [7] is 0.4%. The EC50 was 0.5 to 5 µM in test [1] (A375 cell line, 72 h incubation, CellTiter-Glo, read-out: EC50, growth inhibition of A375); 0.5 to 5 µM in test [2] (HCT-116 cell line, 72 h incubation, CellTiter-Glo, read-out: EC50, growth inhibition of HCT-116); 5 to 10 µM in test [3] (PANC-1 cell line, 72 h incubation, CellTiter-Glo, read-out: EC50 (growth inhibition assay of PANC-1 cell line)); 0.5 to 5 µM in test [4] (Huh7 cell line, 72 h incubation, CellTiter-Glo, read-out: EC50, growth inhibition of Huh7); 0.5 to 5 µM in test [5] (786-O cell line, 72 h incubation, CellTiter-Glo, read-out: EC50, growth inhibition of 786-O); 0.5 to 5 µM in test [6] (HepG2 cell line, 72 h incubation, CellTiter-Glo, read-out: EC50, growth inhibition of HepG2). Moreover, in test [7] (MOLM-14 cell line, 72 h incubation, CellTiter-Glo, read-out: EC50, growth inhibition of MOLM-14), the EC50 was 0.5 to 5 µM.

`N#Cc1c(NCc2ccc(Cl)cc2)nc2ccccc2c1N1CCC(N2CCCC2)C1` (stereo not shown) [Compound 148CN, 2-(4-chloro-benzylamino)-3-cyano-4-[3-(pyrrolidin-1-yl)pyrrolidin-1-yl]quinoline]: the viability at 4 µM was 94.1% in test [1]; 93.5% in test [2]; 102% in test [3]; 91.9% in test [4]; 88.2% in test [5]; 104% in test [6]. In addition, the viability at 4 µM in test [7] amounted to 92.9%. For the same molecule, the viability at 10 µM in test [1] was 93.2%; in test [2], 92.2%; in test [3], 100%; in test [4], 80.8%; in test [5], 67%; in test [6], 91.9%. The viability at 10 µM in test [7] was found to be 94.7%.

For `Cc1ccc(OC2CCN(c3c(C#N)c(NCc4ccc(Cl)cc4)nc4ccccc34)CC2)cc1` [Compound 2944CN, 2-(4-chlorobenzylamino)-3-cyano-4-[4-(p-tolyloxy)piperidin-1-yl]quinoline], the viability at 4 µM was 96.9% in test [1]; 32.8% in test [2]; 111% in test [3]; 93.9% in test [4]; 96% in test [5]; 107% in test [6]. In addition, in test [7], the viability at 4 µM stood at 104%. Also, the viability at 10 µM in test [1] was 87.1%; in test [2], 29.1%; in test [3], 112%; in test [4], 89%; in test [5], 95.5%; in test [6], 84%. Moreover, the viability at 10 µM in test [7] amounted to 92.1%.

Consider `N#Cc1c(NCc2ccc(Cl)cc2)nc2ccccc2c1N1CCC(N2CCOCC2)C1` (stereo not shown) [Compound 150CN, 2-(4-chloro-benzylamino)-3-cyano-4-(3-morpholino-pyrrolidin-1-yl)quinoline], for which the viability at 4 µM in test [1] is 97.9%; in test [2] it was 99.5%; in test [3], 101%; in test [4], 93.8%; in test [5] it was 96.1%; in test [6] it was 100%. In addition, in test [7], the viability at 4 µM is 109%. For the same molecule, the viability at 10 µM in test [1] worked out at 96.8%; in test [2] it was 95.1%; in test [3], 101%; in test [4] it was 90.4%; in test [5], 91.4%; in test [6], 103%. Further, the viability at 10 µM in test [7] came to 114%.

Consider `N#Cc1c(NCc2ccc(Cl)cc2)nc2ccccc2c1N1CCC(Oc2ccccc2)CC1` [Compound 2940CN, 2-(4-chlorobenzylamino)-3-cyano-4-(4-phenoxypiperidin-1-yl)quinoline], for which the viability at 4 µM came to 104% in test [1]; 92.9% in test [2]; 103% in test [3]; 97.3% in test [4]; 97.1% in test [5]; 89.7% in test [6]. For the same molecule, in test [7], the viability at 4 µM was 102%. Moreover, the viability at 10 µM in test [1] came to 98.3%; in test [2] it was 82.9%; in test [3], 102%; in test [4], 88.9%; in test [5], 91.7%; in test [6], 79.4%. Besides, the viability at 10 µM in test [7] came out at 89.1%.
